From patent publication US20260297060A1, “COMPOUNDS FOR THE DEGRADATION OF MUTANT BRAF” (C4 THERAPEUTICS, INC., priority 2023, published 2026)

System: A375-NRAS^Q61K cells
Assay: CTGlo Cell Viability Assay, A375-NRAS^Q61K (A375.11) cells, 96 hours
Format: cell-based, human
Conditions: Homo sapiens, 96 h, A375.11 (A375-NRAS^Q61K) cells; for Emax: lowest % viability achieved
Method in brief: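 A375 cells carrying BRAF V600E and NRAS Q61K were seeded at 250 cells/well with a 10-point half-log dose series (max 10 μM final). After 96 h at 37 °C, viability was read as ATP luminescence (CellTiter-Glo), background-subtracted and normalized to DMSO (100%). GI50 from 4-parameter fit; Emax is the lowest % viability.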

With `CCN(C)S(=O)(=O)Nc1ccc(F)c(Oc2ccc3ncn([C@H]4COC5(CCN(C6CC7(C6)CN(c6cc8c(cc6F)c(N6CCC(=O)NC6=O)nn8C)C7)CC5)C4)c(=O)c3c2)c1C#N` [Compound 26, (3R)-3-[6-[2-cyano-3-[[ethyl(methyl)sulfamoyl]amino]-6-fluoro-phenoxy]-4-oxo-quinazolin-3-yl]-8-[2-[3-(2,4-dioxohexahydropyrimidin-1-yl)-5-fluoro-1-methyl-indazol-6-yl]-2-azaspiro[3.3]heptan-6-yl]-1-oxa-8-azaspiro[4.5]decane] as the compound, how does the GI50 read?
The GI50 was < 1000 nM.

And the Emax?
Its Emax is 50 to 90%.

For `CCN(C)S(=O)(=O)Nc1ccc(F)c(Oc2ccc3ncn([C@H]4COC5(CCC(N6CC7(CN(c8cc9c(cc8F)c(N8CCC(=O)NC8=O)nn9C)C7)C6)CC5)C4)c(=O)c3c2)c1C#N` (stereo partly drawn) [Compound 27, 6-[2-cyano-3-[[ethyl(methyl)sulfamoyl]amino]-6-fluoro-phenoxy]-3-[(3R)-8-[6-[3-(2,4-dioxohexahydropyrimidin-1-yl)-5-fluoro-1-methyl-indazol-6-yl]-2,6-diazaspiro[3.3]heptan-2-yl]-1-oxaspiro[4.5]decan-3-yl]-4-oxo-quinazoline], which GI50 is on record?
The GI50 was < 1000 nM.

What about the Emax of the same compound?
The Emax was < 50%.

`CCN(C)S(=O)(=O)Nc1ccc(F)c(Oc2ccc3ncn([C@H]4COC5(CCC(N6CC7(CN(c8ccc(NC9CCC(=O)NC9=O)cc8F)C7)C6)CC5)C4)c(=O)c3c2)c1C#N` (stereo partly drawn) [Compound 30, 6-[2-cyano-3-[[ethyl(methyl)sulfamoyl]amino]-6-fluoro-phenoxy]-3-[(3R)-8-[6-[4-[(2,6-dioxo-3-piperidyl)amino]-2-fluoro-phenyl]-2,6-diazaspiro[3.3]heptan-2-yl]-1-oxaspiro[4.5]decan-3-yl]-4-oxo-quinazoline] was tested. Which GI50 did it give?
Its GI50 is 1000 to 10000 nM.

What about the Emax of the same compound?
The Emax was < 50%.

With `CCN(C)S(=O)(=O)Nc1ccc(F)c(Oc2ccc3ncn([C@H]4COC5(CCN(C6CC7(C6)CN(c6ccc(NC8CCC(=O)NC8=O)cc6F)C7)CC5)C4)c(=O)c3c2)c1C#N` (stereo partly drawn) [Compound 35, (3R)-3-[6-[2-cyano-3-[[ethyl(methyl)sulfamoyl]amino]-6-fluoro-phenoxy]-4-oxo-quinazolin-3-yl]-8-[2-[4-[(2,6-dioxo-3-piperidyl)amino]-2-fluoro-phenyl]-2-azaspiro[3.3]heptan-6-yl]-1-oxa-8-azaspiro[4.5]decane] as the compound, how does the GI50 read?
The GI50 was 1000 to 10000 nM.

And the Emax?
Its Emax is 50 to 90%.

`CCN(C)S(=O)(=O)Nc1ccc(F)c(Oc2ccc3ncn([C@H]4COC5(CCC(N6CCN(c7ccc(NC8CCC(=O)NC8=O)cc7F)CC6)CC5)C4)c(=O)c3c2)c1C#N` (stereo partly drawn) [Compound 40, 6-[2-cyano-3-[[ethyl(methyl)sulfamoyl]amino]-6-fluoro-phenoxy]-3-[(3R)-8-[4-[4-[(2,6-dioxo-3-piperidyl)amino]-2-fluoro-phenyl]piperazin-1-yl]-1-oxaspiro[4.5]decan-3-yl]-4-oxo-quinazoline] was tested. Which GI50 did it give?
Its GI50 is 1000 to 10000 nM.

And the Emax?
Its Emax is 50 to 90%.

For `Cn1nc(N2CCC(=O)NC2=O)c2cc(F)c(N3CC4(CC(N5CCC6(CC5)C[C@@H](n5cnc7ccc(Oc8c(F)ccc(NS(=O)(=O)N9CC[C@@H](F)C9)c8C#N)cc7c5=O)CO6)C4)C3)cc21` [Compound 133, (3R)-N-[2-cyano-3-[3-[(3R)-8-[2-[3-(2,4-dioxohexahydropyrimidin-1-yl)-5-fluoro-1-methyl-indazol-6-yl]-2-azaspiro[3.3]heptan-6-yl]-1-oxa-8-azaspiro[4.5]decan-3-yl]-4-oxo-quinazolin-6-yl]oxy-4-fluoro-phenyl]-3-fluoro-pyrrolidine-1-sulfonamide], which GI50 is on record?
Its GI50 is 1000 to 10000 nM.

What about the Emax of the same compound?
Its Emax is < 50%.

How did the GI50 turn out when `CC(C)S(=O)(=O)Nc1ccc(F)c(Oc2ccc3ncn([C@H]4COC5(CCN(C6CC7(C6)CN(c6cc8c(cc6F)c(N6CCC(=O)NC6=O)nn8C)C7)CC5)C4)c(=O)c3c2)c1C#N` [Compound 134, N-[2-cyano-3-[3-[(3R)-8-[2-[3-(2,4-dioxohexahydropyrimidin-1-yl)-5-fluoro-1-methyl-indazol-6-yl]-2-azaspiro[3.3]heptan-6-yl]-1-oxa-8-azaspiro[4.5]decan-3-yl]-4-oxo-quinazolin-6-yl]oxy-4-fluoro-phenyl]propane-2-sulfonamide] was run?
Its GI50 is < 1000 nM.

What about the Emax of the same compound?
The Emax was 50 to 90%.

What does the source list for `CCN(C)S(=O)(=O)Nc1ccc(F)c(Oc2ccc3ncn(C4CC5(CCN(C6CC7(C6)CN(c6cc8c(cc6F)c(N6CCC(=O)NC6=O)nn8C)C7)CC5)C4)c(=O)c3c2)c1C#N` (stereo not drawn) [Compound 141, 6-[2-cyano-3-[[ethyl(methyl)sulfamoyl]amino]-6-fluoro-phenoxy]-3-[7-[2-[3-(2,4-dioxohexahydropyrimidin-1-yl)-5-fluoro-1-methyl-indazol-6-yl]-2-azaspiro[3.3]heptan-6-yl]-7-azaspiro[3.5]nonan-2-yl]-4-oxo-quinazoline]?
GI50: < 1000 nM; Emax: 50 to 90%

Which GI50 does the source give for `CO[C@@H]1CCN(S(=O)(=O)Nc2ccc(F)c(Oc3ccc4ncn([C@H]5COC6(CCN(C7CC8(C7)CN(c7cc9c(cc7F)c(N7CCC(=O)NC7=O)nn9C)C8)CC6)C5)c(=O)c4c3)c2C#N)C1` [Compound 144, (3R)-N-[2-cyano-3-[3-[(3R)-8-[2-[3-(2,4-dioxohexahydropyrimidin-1-yl)-5-fluoro-1-methyl-indazol-6-yl]-2-azaspiro[3.3]heptan-6-yl]-1-oxa-8-azaspiro[4.5]decan-3-yl]-4-oxo-quinazolin-6-yl]oxy-4-fluoro-phenyl]-3-methoxy-pyrrolidine-1-sulfonamide] here?
The GI50 was < 1000 nM.

And the Emax?
Its Emax is < 50%.

For `CN(CCO)S(=O)(=O)Nc1ccc(F)c(Oc2ccc3ncn(C4CC5(CCN(C6CC7(C6)CN(c6cc8c(cc6F)c(N6CCC(=O)NC6=O)nn8C)C7)CC5)C4)c(=O)c3c2)c1C#N` (stereo not drawn) [Compound 151, 6-[2-cyano-6-fluoro-3-[[2-hydroxyethyl(methyl)sulfamoyl]amino]phenoxy]-3-[7-[2-[3-(2,4-dioxohexahydropyrimidin-1-yl)-5-fluoro-1-methyl-indazol-6-yl]-2-azaspiro[3.3]heptan-6-yl]-7-azaspiro[3.5]nonan-2-yl]-4-oxo-quinazoline], which GI50 is on record?
The GI50 was 1000 to 10000 nM.

And the Emax?
Its Emax is > 90%.

`CCN(C)S(=O)(=O)Nc1ccc(F)c(Oc2ccc3ncn(C4CC5(CCN(C6CCN(c7cc8c(cc7F)c(N7CCC(=O)NC7=O)nn8C)CC6)CC5)C4)c(=O)c3c2)c1C#N` [Compound 156, 6-[2-cyano-3-[[ethyl(methyl)sulfamoyl]amino]-6-fluoro-phenoxy]-3-[7-[1-[3-(2,4-dioxohexahydropyrimidin-1-yl)-5-fluoro-1-methyl-indazol-6-yl]-4-piperidyl]-7-azaspiro[3.5]nonan-2-yl]-4-oxo-quinazoline] was tested. Which GI50 did it give?
The GI50 was < 1000 nM.

What about the Emax of the same compound?
The Emax was 50 to 90%.

What does the source list for `CO[C@H]1CCN(S(=O)(=O)Nc2ccc(F)c(Oc3ccc4ncn([C@H]5COC6(CCN(C7CC8(C7)CN(c7cc9c(cc7F)c(N7CCC(=O)NC7=O)nn9C)C8)CC6)C5)c(=O)c4c3)c2C#N)C1` [Compound 157, (3S)-N-[2-cyano-3-[3-[(3R)-8-[2-[3-(2,4-dioxohexahydropyrimidin-1-yl)-5-fluoro-1-methyl-indazol-6-yl]-2-azaspiro[3.3]heptan-6-yl]-1-oxa-8-azaspiro[4.5]decan-3-yl]-4-oxo-quinazolin-6-yl]oxy-4-fluoro-phenyl]-3-methoxy-pyrrolidine-1-sulfonamide]?
GI50: < 1000 nM; Emax: 50 to 90%
